Results from PubChem BioAssay (NCI).
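Tested at 5 concentrations; 48 h exposure; 96-well plates; endpoints linearly interpolated, else capped at highest concentration. GI50 is the concentration that inhibits growth by half. The concentration for full growth arrest is given as TGI.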

How the values were obtained:
Experiment in all cases: NCI anticancer screen, dose series, 48 h
COLO 205 colon = system: COLO 205 colon
K-562 leukemia = system: K-562 leukemia
NCI-H226 lung = system: NCI-H226 lung
SK-OV-3 ovarian = system: SK-OV-3 ovarian
SF-295 CNS = system: SF-295 CNS
OVCAR-4 ovarian = system: OVCAR-4 ovarian
TK-10 renal = system: TK-10 renal
EKVX NSCLC = system: EKVX NSCLC
MOLT-4 leukemia = system: MOLT-4 leukemia
T-47D breast = system: T-47D breast

CC(C)C(Nc1c2ccccc2nc2ccccc12)C(=O)O (stereo unspecified)
TGI (COLO 205 colon): > 100 µM
TGI (K-562 leukemia): > 100 µM
TGI (NCI-H226 lung): > 100 µM
TGI (SK-OV-3 ovarian): > 100 µM
TGI (SF-295 CNS): > 100 µM
TGI (OVCAR-4 ovarian): 85.3 µM
TGI (TK-10 renal): > 100 µM
TGI (EKVX NSCLC): > 100 µM
TGI (MOLT-4 leukemia): > 100 µM

Cc1cc(C(=O)Nc2ncc(Cc3cccc(C(F)(F)F)c3)s2)c2ccccc2n1
GI50 (COLO 205 colon): 0.75 µM
TGI (COLO 205 colon): > 100 µM
GI50 (K-562 leukemia): 0.0458 µM
TGI (K-562 leukemia): > 100 µM
GI50 (SK-OV-3 ovarian): 4.24 µM
TGI (SK-OV-3 ovarian): > 100 µM
GI50 (SF-295 CNS): 1.63 µM
TGI (SF-295 CNS): > 100 µM
GI50 (OVCAR-4 ovarian): 4.02 µM
TGI (OVCAR-4 ovarian): > 100 µM
GI50 (T-47D breast): 0.181 µM
TGI (T-47D breast): > 100 µM
GI50 (EKVX NSCLC): 2.9 µM
TGI (EKVX NSCLC): > 100 µM
GI50 (MOLT-4 leukemia): 2.39 µM
TGI (MOLT-4 leukemia): > 100 µM

O=C1OC(c2ccccc2)=N/C1=C\c1cccc2ccccc12
TGI (COLO 205 colon): > 100 µM
TGI (K-562 leukemia): > 100 µM
TGI (NCI-H226 lung): > 100 µM
TGI (SK-OV-3 ovarian): > 100 µM
TGI (SF-295 CNS): > 100 µM
TGI (OVCAR-4 ovarian): > 100 µM
TGI (TK-10 renal): > 100 µM
TGI (MOLT-4 leukemia): > 100 µM

COC(C(O)CO)C(O)C(O)C(=O)NNc1ccccc1 (stereo unspecified)
TGI (COLO 205 colon): 28.7 µM
TGI (K-562 leukemia): > 100 µM
TGI (SK-OV-3 ovarian): > 100 µM
TGI (SF-295 CNS): > 100 µM
TGI (TK-10 renal): > 100 µM
TGI (T-47D breast): > 100 µM
TGI (EKVX NSCLC): > 100 µM
TGI (MOLT-4 leukemia): > 100 µM

CCCCC(O)(c1ccc(Cl)cc1)C(CN1CCOCC1)c1ccc(Cl)cc1 (stereo unspecified)
GI50 (COLO 205 colon): 10.8 µM
TGI (COLO 205 colon): 25.5 µM
GI50 (K-562 leukemia): 12.2 µM
TGI (K-562 leukemia): 41.1 µM
GI50 (NCI-H226 lung): 11.8 µM
TGI (NCI-H226 lung): 28.8 µM
GI50 (SK-OV-3 ovarian): 15.2 µM
TGI (SK-OV-3 ovarian): 47.1 µM
GI50 (SF-295 CNS): 14.4 µM
TGI (SF-295 CNS): 30.7 µM
GI50 (OVCAR-4 ovarian): 13.6 µM
TGI (OVCAR-4 ovarian): 29 µM
GI50 (TK-10 renal): 16.6 µM
TGI (TK-10 renal): 31.2 µM
GI50 (T-47D breast): 11.3 µM
TGI (T-47D breast): 25 µM
GI50 (MOLT-4 leukemia): 10.7 µM
TGI (MOLT-4 leukemia): 30.7 µM

N#CCN1C(=O)c2cccc3cc([N+](=O)[O-])cc(c23)C1=O
TGI (COLO 205 colon): > 100 µM
TGI (K-562 leukemia): > 100 µM
TGI (NCI-H226 lung): 62.4 µM
TGI (SK-OV-3 ovarian): > 100 µM
TGI (SF-295 CNS): > 100 µM
TGI (OVCAR-4 ovarian): > 100 µM
TGI (TK-10 renal): 95.6 µM
TGI (EKVX NSCLC): > 100 µM
TGI (MOLT-4 leukemia): > 100 µM

Clc1nc(Cl)c(Cl)c(-c2ccccc2)n1
TGI (NCI-H226 lung): 65.4 µM
TGI (SK-OV-3 ovarian): 25.8 µM
TGI (SF-295 CNS): 17.1 µM
TGI (OVCAR-4 ovarian): 20.6 µM
TGI (TK-10 renal): 32.9 µM
TGI (EKVX NSCLC): 30.7 µM
TGI (MOLT-4 leukemia): 3.99 µM

CN1C(=O)c2cccc3cc([N+](=O)[O-])cc(c23)C1=O
TGI (COLO 205 colon): > 10 µM
TGI (K-562 leukemia): > 10 µM
TGI (SK-OV-3 ovarian): > 10 µM
TGI (SF-295 CNS): > 10 µM
TGI (OVCAR-4 ovarian): > 10 µM
TGI (TK-10 renal): > 10 µM
TGI (T-47D breast): > 10 µM
TGI (MOLT-4 leukemia): > 10 µM

CC(C)(C)c1ccc2c(c1)S(=O)(=O)Nc1ccccc1NS(=O)(=O)c1cc(C(C)(C)C)ccc1OCCOCCOCCO2
TGI (COLO 205 colon): > 100 µM
TGI (K-562 leukemia): > 100 µM
TGI (NCI-H226 lung): > 100 µM
TGI (SK-OV-3 ovarian): > 100 µM
TGI (SF-295 CNS): > 100 µM
TGI (OVCAR-4 ovarian): 48 µM
TGI (TK-10 renal): > 100 µM
TGI (EKVX NSCLC): > 100 µM
TGI (MOLT-4 leukemia): > 100 µM

CC1CC[C@]2(C(=O)O)CCC3(C)C(=CC(=O)C4[C@@]5(C)CCC(=O)C(C)(C)C5CC[C@]43C)[C@@H]2[C@H]1C (stereo partly specified)
TGI (COLO 205 colon): 33.7 µM
TGI (K-562 leukemia): > 100 µM
TGI (NCI-H226 lung): 92.6 µM
TGI (SK-OV-3 ovarian): > 100 µM
TGI (SF-295 CNS): > 100 µM
TGI (OVCAR-4 ovarian): > 100 µM
TGI (TK-10 renal): 90.2 µM
TGI (EKVX NSCLC): > 100 µM
TGI (MOLT-4 leukemia): 32.2 µM

C=C1C(=O)O[C@H]2[C@H]1CC/C(COC(=O)C(=O)c1cn(Cc3ccccc3)c3ccccc13)=C\CC[C@@]1(C)O[C@@H]21
GI50 (COLO 205 colon): 2.08 µM
TGI (COLO 205 colon): 4.46 µM
GI50 (K-562 leukemia): 2.66 µM
TGI (K-562 leukemia): 10.4 µM
GI50 (SK-OV-3 ovarian): 18.9 µM
TGI (SK-OV-3 ovarian): 56.7 µM
GI50 (SF-295 CNS): 10.5 µM
TGI (SF-295 CNS): 25.6 µM
GI50 (OVCAR-4 ovarian): 4.19 µM
TGI (OVCAR-4 ovarian): > 100 µM
GI50 (TK-10 renal): 2.33 µM
TGI (TK-10 renal): 5.47 µM
GI50 (T-47D breast): 2.04 µM
TGI (T-47D breast): 4.85 µM
GI50 (EKVX NSCLC): 2.06 µM
TGI (EKVX NSCLC): 5.96 µM
GI50 (MOLT-4 leukemia): 2.35 µM
TGI (MOLT-4 leukemia): 6.83 µM

COc1ccccc1CCc1cc(OC)c(OC)c(OC)c1
TGI (COLO 205 colon): > 100 µM
TGI (K-562 leukemia): > 100 µM
TGI (NCI-H226 lung): > 100 µM
TGI (SF-295 CNS): > 100 µM
TGI (OVCAR-4 ovarian): > 100 µM
TGI (TK-10 renal): > 100 µM
TGI (EKVX NSCLC): > 100 µM
TGI (MOLT-4 leukemia): 59.9 µM

CCOc1ccccc1NC(=O)CC(C(=O)OC)C(=O)C(=O)OC (stereo unspecified)
TGI (COLO 205 colon): > 100 µM
TGI (K-562 leukemia): > 100 µM
TGI (NCI-H226 lung): > 100 µM
TGI (SK-OV-3 ovarian): > 100 µM
TGI (SF-295 CNS): > 100 µM
TGI (OVCAR-4 ovarian): > 100 µM
TGI (TK-10 renal): > 100 µM
TGI (EKVX NSCLC): > 100 µM
TGI (MOLT-4 leukemia): > 100 µM

COc1cc2nc3cc([N+](=O)[O-])ccc3c(NCCCNCCO)c2cc1OC
GI50 (COLO 205 colon): 0.162 µM
TGI (COLO 205 colon): 0.351 µM
GI50 (NCI-H226 lung): 0.196 µM
TGI (NCI-H226 lung): 0.505 µM
GI50 (SK-OV-3 ovarian): 0.265 µM
TGI (SK-OV-3 ovarian): 0.711 µM
GI50 (SF-295 CNS): 0.182 µM
TGI (SF-295 CNS): 0.604 µM
GI50 (OVCAR-4 ovarian): 0.114 µM
TGI (OVCAR-4 ovarian): 0.385 µM
GI50 (TK-10 renal): 0.276 µM
TGI (TK-10 renal): 0.923 µM
GI50 (T-47D breast): 0.205 µM
TGI (T-47D breast): 0.531 µM
GI50 (EKVX NSCLC): 0.353 µM
TGI (EKVX NSCLC): 4.63 µM
GI50 (MOLT-4 leukemia): 0.244 µM
TGI (MOLT-4 leukemia): 5.4 µM

O=C1C2C3C=C4c5ccccc5N(c5ccccc5)C4(C2C(=O)N1Cc1ccccc1)C1C(=O)N(Cc2ccccc2)C(=O)C31 (stereo unspecified)
TGI (COLO 205 colon): > 100 µM
TGI (K-562 leukemia): > 100 µM
TGI (SF-295 CNS): > 100 µM
TGI (TK-10 renal): > 100 µM
TGI (MOLT-4 leukemia): > 100 µM

COC1(OC)C2(Cl)C(Cl)=C(Cl)C1(Cl)C1C=CC=CC12 (stereo unspecified)
TGI (COLO 205 colon): > 100 µM
TGI (K-562 leukemia): > 100 µM
TGI (NCI-H226 lung): > 100 µM
TGI (SK-OV-3 ovarian): > 100 µM
TGI (SF-295 CNS): > 100 µM
TGI (OVCAR-4 ovarian): > 100 µM
TGI (TK-10 renal): > 100 µM
TGI (EKVX NSCLC): > 100 µM

COc1ccc(C(=O)C(C(=O)CCC(=O)Nc2cccc(Cl)c2)c2ccc(OC)cc2)cc1 (stereo unspecified)
TGI (COLO 205 colon): > 100 µM
TGI (K-562 leukemia): > 100 µM
TGI (NCI-H226 lung): > 100 µM
TGI (SK-OV-3 ovarian): > 100 µM
TGI (SF-295 CNS): > 100 µM
TGI (OVCAR-4 ovarian): > 100 µM
TGI (TK-10 renal): > 100 µM
TGI (EKVX NSCLC): > 100 µM
TGI (MOLT-4 leukemia): > 100 µM

CC1(C)C(=O)N(CCCCCCN2C(=O)C(C)(C)c3ccccc32)c2ccccc21
TGI (COLO 205 colon): 55.2 µM
TGI (K-562 leukemia): 55.4 µM
TGI (NCI-H226 lung): 87.2 µM
TGI (SK-OV-3 ovarian): > 100 µM
TGI (SF-295 CNS): > 100 µM
TGI (OVCAR-4 ovarian): > 100 µM
TGI (TK-10 renal): > 100 µM
TGI (EKVX NSCLC): > 100 µM
TGI (MOLT-4 leukemia): 60 µM

c1cc(CNC23CC4CC(CC(C4)C2)C3)cc(C[N+](Cc2cccc(CNC34CC5CC(CC(C5)C3)C4)c2)(Cc2cccc(CNC34CC5CC(CC(C5)C3)C4)c2)Cc2cccc(CNC34CC5CC(CC(C5)C3)C4)c2)c1 (stereo unspecified)
GI50 (COLO 205 colon): 4.57 µM
TGI (COLO 205 colon): 13.1 µM
GI50 (K-562 leukemia): 6.1 µM
TGI (K-562 leukemia): 151 µM
GI50 (NCI-H226 lung): 11.5 µM
TGI (NCI-H226 lung): 45.3 µM
GI50 (SK-OV-3 ovarian): 21.4 µM
TGI (SK-OV-3 ovarian): 47.7 µM
GI50 (SF-295 CNS): 12.7 µM
TGI (SF-295 CNS): 43.6 µM
GI50 (OVCAR-4 ovarian): 4.85 µM
TGI (OVCAR-4 ovarian): 22.8 µM
GI50 (TK-10 renal): 7.75 µM
TGI (TK-10 renal): 30 µM
GI50 (T-47D breast): 5.59 µM
TGI (T-47D breast): 28.1 µM
GI50 (MOLT-4 leukemia): 5.52 µM
TGI (MOLT-4 leukemia): 17.1 µM

Cc1ccn2c(c1)nc1nc3ccccc3nc12
TGI (COLO 205 colon): > 100 µM
TGI (K-562 leukemia): > 100 µM
TGI (NCI-H226 lung): > 100 µM
TGI (SK-OV-3 ovarian): > 100 µM
TGI (SF-295 CNS): > 100 µM
TGI (OVCAR-4 ovarian): > 100 µM
TGI (TK-10 renal): > 100 µM
TGI (EKVX NSCLC): > 100 µM
